Results taken from PubChem BioAssay AID296 (DTP/NCI, 2004).
Several values for one entry are separate records, joined by “and”; a condition that tells them apart may be missing. Equal entries are not always repeated. Results filed as inconclusive are left out.

Tested on: MX-1 breast xenograft, nude mice, tumor weight T/C
Assay: NCI In Vivo Anticancer Drug Screen. Data for tumor model Human Mammary Carcinoma MX-1 Xenograft (intrarenal inoculation) in NU/NU Swiss (nude) mice
Conditions: endpoint: mean tumor weight change, higher = larger tumour
How it was run: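 Activity is given as a ratio, with each measurement in the compound-treated arm divided by the matching measurement in vehicle-dosed controls. Tumour size or survival serves as the measured parameter.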

[1] = dose: 75.0 mg/kg/injection, schedule: Q04DX003 (sc), vehicle: Klucel (hydroxypropylcellulose) (HPC)
[2] = dose: 150.0 mg/kg/injection, schedule: Q04DX003 (sc), vehicle: Klucel (hydroxypropylcellulose) (HPC)
[3] = dose: 300.0 mg/kg/injection, schedule: Q04DX003 (sc), vehicle: Klucel (hydroxypropylcellulose) (HPC)
[4] = dose: 600.0 mg/kg/injection, schedule: Q04DX003 (sc), vehicle: Klucel (hydroxypropylcellulose) (HPC)

What does the source list for `O=c1nc(-c2ccco2)sc(=O)[nH]1`?
T/C [1]: 122 % of control; T/C [2]: 90 % of control; T/C [3]: 54 % of control; T/C [4]: 58 % of control

For `CNC(=O)OCc1c(COC(=O)NC)c(C)n(-c2ccc(OC)cc2)c1C`, which T/C (dose: 50.0 mg/kg/injection, schedule: Q01DX010 (sc), vehicle: Klucel (hydroxypropylcellulose) (HPC)) is on record?
The T/C was 41 % of control.

And the T/C (dose: 50.0 mg/kg/injection, schedule: Q04DX003 (sc), vehicle: Klucel (hydroxypropylcellulose) (HPC))?
The T/C was 110 % of control.

And the T/C (dose: 100.0 mg/kg/injection, schedule: Q01DX010 (sc), vehicle: Klucel (hydroxypropylcellulose) (HPC))?
The T/C was 9 % of control.

What about the T/C (dose: 100.0 mg/kg/injection, schedule: Q04DX003 (sc), vehicle: Klucel (hydroxypropylcellulose) (HPC)) of the same compound?
Its T/C is 46 % of control.

What about the T/C (dose: 200.0 mg/kg/injection, schedule: Q01DX010 (sc), vehicle: Klucel (hydroxypropylcellulose) (HPC)) of the same compound?
The T/C was -52 % of control.

What about the T/C (dose: 400.0 mg/kg/injection, schedule: Q01DX010 (sc), vehicle: Klucel (hydroxypropylcellulose) (HPC)) of the same compound?
Its T/C is -61 % of control.

And the T/C (dose: 800.0 mg/kg/injection, schedule: Q04DX003 (sc), vehicle: Klucel (hydroxypropylcellulose) (HPC))?
The T/C was -100 % of control.

And the T/C (dose: 1600.0 mg/kg/injection, schedule: Q04DX003 (sc), vehicle: Klucel (hydroxypropylcellulose) (HPC))?
Its T/C is -100 % of control.

What does the source list for `OCCN1CCN(CC/C=C2/c3ccccc3Sc3ccc(Cl)cc32)CC1`?
T/C (dose: 12.5 mg/kg/injection, schedule: Q04DX003 (sc), vehicle: saline): 115 % of control; T/C (dose: 25.0 mg/kg/injection, schedule: Q04DX003 (sc), vehicle: saline): 47 % of control; T/C (dose: 50.0 mg/kg/injection, schedule: Q04DX003 (sc), vehicle: saline): 44 % of control and 51 % of control

Which T/C (dose: 2.5 mg/kg/injection, schedule: Q01DX010 (sc), vehicle: saline) does the source give for `CC(=O)C(O)N1C(=O)C=CC1=O` (centres undefined) here?
The T/C was 157 % of control.

What about the T/C (dose: 5.0 mg/kg/injection, schedule: Q01DX010 (sc), vehicle: saline) of the same compound?
Its T/C is 117 % of control.

What about the T/C (dose: 10.0 mg/kg/injection, schedule: Q01DX010 (sc), vehicle: saline) of the same compound?
The T/C was 159 % of control.

Which results are given for `COc1cc2cc[n+](C)c(Cc3ccccc3)c2cc1OC`?
T/C (dose: 18.75 mg/kg/injection, schedule: Q04DX003 (sc), vehicle: Klucel (hydroxypropylcellulose) (HPC)): 90 % of control; T/C (dose: 37.5 mg/kg/injection, schedule: Q04DX003 (sc), vehicle: Klucel (hydroxypropylcellulose) (HPC)): 115 % of control; T/C [1]: 58 % of control

What does the source list for `C[C@]12CCC(=O)C=C1CC[C@@H]1[C@@H]2[C@@H](O)C[C@@]2(C)[C@H]1CC[C@]2(O)C(=O)CO`?
T/C [1]: 117 % of control; T/C [2]: 45 % of control; T/C [3]: 33 % of control; T/C [4]: 33 % of control

How did the T/C (dose: 100.0 mg/kg/injection, schedule: Q04DX003 (sc), vehicle: saline) turn out when `c1csc(C[N+]23CN4CN(CN(C4)C2)C3)c1` was run?
The T/C was 108 % of control.

And the T/C (dose: 400.0 mg/kg/injection, schedule: Q04DX003 (sc), vehicle: saline)?
Its T/C is 93 % of control.

How did the T/C (dose: 100.0 mg/kg/injection, schedule: Q04DX003 (sc), vehicle: saline with Tween-80) turn out when `ClC1=C(Cl)C(Cl)=C(Cl)C1=Cc1ccccc1` was run?
The T/C was 98 % of control.

What about the T/C (dose: 200.0 mg/kg/injection, schedule: Q04DX003 (sc), vehicle: saline with Tween-80) of the same compound?
Its T/C is 119 % of control.

What about the T/C (dose: 400.0 mg/kg/injection, schedule: Q04DX003 (sc), vehicle: saline with Tween-80) of the same compound?
The T/C was 98 % of control.

What about the T/C (dose: 800.0 mg/kg/injection, schedule: Q04DX003 (sc), vehicle: saline with Tween-80) of the same compound?
Its T/C is 110 % of control.

With `CC1(CO)C(O)CCC2(C)C1CCC1CC3CC12CCC3(O)CO` (centres undefined) as the compound, how does the T/C (dose: 50.0 mg/kg/injection, schedule: Q01DX010 (sc), vehicle: saline with Tween-80) read?
The T/C was 56 % of control.

What about the T/C (dose: 100.0 mg/kg/injection, schedule: Q01DX010 (sc), vehicle: saline with Tween-80) of the same compound?
The T/C was 38 % of control.

Which results are given for `O=C(CC(=O)C(F)(F)F)c1csc2ccccc12`?
T/C [3]: 87 % of control; T/C [4]: 91 % of control; T/C (dose: 1200.0 mg/kg/injection, schedule: Q04DX003 (sc), vehicle: Klucel (hydroxypropylcellulose) (HPC)): 111 % of control; T/C (dose: 2400.0 mg/kg/injection, schedule: Q04DX003 (sc), vehicle: Klucel (hydroxypropylcellulose) (HPC)): 99 % of control

With `Cn1/c2cc/c1=C(\c1ccc(S(=O)(=O)O)cc1)c1ccc([n-]1)/C(c1ccc(S(=O)(=O)O)cc1)=c1/cc/c([nH]1)=C(\c1ccc(S(=O)(=O)O)cc1)c1ccc([n-]1)/C=2c1ccc(S(=O)(=O)O)cc1.O.O=S(=O)(O)C(F)(F)F.[Cu+2]` as the compound, how does the T/C [2] read?
The T/C was 54 % of control.

What about the T/C [4] of the same compound?
Its T/C is 94 % of control.
